{"source": "ChEMBL document CHEMBL1777691", "about": "“Structure based design of novel inhibitors for histidinol dehydrogenase from Geotrichum candidum” (Bioorg Med Chem Lett, 2010)", "data": [{"test": "Inhibition of Geotrichum candidum Histidinol dehydrogenase", "units": {"IC50": "µM"}, "values": [{"smiles": "CCOC(=O)NC(Cc1cn(C)cn1)C(=O)OC", "note": "(stereo not drawn)", "IC50": 29.3}, {"smiles": "O=C(O)C1Cc2cncn2C(=O)N1", "note": "(stereo not drawn)", "IC50": 3.56}, {"smiles": "COC(=O)NC(Cc1cncn1C)C(=O)OC", "note": "(stereo not drawn)", "IC50": 10.6}, {"smiles": "O=C(O)CCc1c[nH]cn1", "IC50": 3.17}, {"smiles": "O=C(O)C1Cc2c(I)nc(I)n2C(=O)N1", "note": "(stereo not drawn)", "IC50": 58.7}, {"smiles": "COC(=O)CCc1c[nH]cn1", "IC50": 5.2}, {"smiles": "COC(=O)C1Cc2c(Cl)ncn2C(=O)N1", "note": "(stereo not drawn)", "IC50": 122}, {"smiles": "O=C1NCCc2cncn21", "IC50": 24.2}]}]}
